# Measured values as given in publication PMC8322070, “A novel orally active HDAC6 inhibitor T-518 shows a therapeutic potential for Alzheimer’s disease and tauopathy in mice” (Scientific Reports, 2021).
# Assays:
# Type in all cases: biochemical
# human HDAC4 = target: T1, human HDAC4 (Homo sapiens, UniProt P56524); test: HDAC enzyme assay (HDAC-Glo class IIa), HDAC4; details: concentrations up to 10 μM
# T1 construct: made in house
# Experimental: (§1) Recombinant HDAC6, HDAC7, HDAC1 were obtained from SignalChem Pharmaceutical Inc. (Richmond, BC, Canada), and recombinant human HDAC4 was prepared at Takeda pharmaceutical company. One μL of T-518 diluted with DMSO was added to 75 μL of assay buffer (24 mM Tris–HCl (pH 7.5), 135 mM NaCl, 0.35 mM KCl, 1 mM MgCl2, 0.01% Tween 20, 0.6 mM GSH) in 384 well plates. Two μL of diluted compounds were added to 384 well plates and 2 μL of recombinant HDAC enzymes was added and then centrifuged at 1000 rpm for 10 s. The final concentrations of each HDAC enzyme were as follows, human HDAC1, 170 pM; human HDAC6, […]; human HDAC4, 68 pM; human HDAC7, 13 pM. After incubation for 60 min at room temperature, 4 μL of HDAC-Glo reagent [HDAC-Glo I/II (Promega) for HDAC6 and HDAC1, HDAC-Glo class IIa (Promega) for HDAC4 and HDAC7] was added to start the reaction. After incubation for 20 min at room temperature, the luminescence was measured by Envision plate reader (PerkinElmer, Waltham, MA, USA). For experiments under the condition of 0 min preincubation, 4 μL of HDAC-Glo reagent was added at first to the 384 well plates including diluted compounds. […] After centrifugation at 1000 rpm for 10 s. and then incubation for 20 min at room temperature, the luminescence was measured by Envision. […] The inhibitory activity of T-518 was expressed as the value of IC50. […]
# human HDAC1 = target: T2, human HDAC1 (Homo sapiens, UniProt Q13547); test: HDAC enzyme assay (HDAC-Glo I/II), HDAC1; details: concentrations up to 10 μM
# T2 construct: purchased SignalChem Pharmaceutical Inc
# Experimental: as §1
# human HDAC6 = target: T3, human HDAC6 (Homo sapiens, UniProt Q9UBN7); test: HDAC enzyme assay (HDAC-Glo I/II), HDAC6
# T3 construct: purchased SignalChem Pharmaceutical Inc
# T3 sequence (Q9UBN7 1-1215): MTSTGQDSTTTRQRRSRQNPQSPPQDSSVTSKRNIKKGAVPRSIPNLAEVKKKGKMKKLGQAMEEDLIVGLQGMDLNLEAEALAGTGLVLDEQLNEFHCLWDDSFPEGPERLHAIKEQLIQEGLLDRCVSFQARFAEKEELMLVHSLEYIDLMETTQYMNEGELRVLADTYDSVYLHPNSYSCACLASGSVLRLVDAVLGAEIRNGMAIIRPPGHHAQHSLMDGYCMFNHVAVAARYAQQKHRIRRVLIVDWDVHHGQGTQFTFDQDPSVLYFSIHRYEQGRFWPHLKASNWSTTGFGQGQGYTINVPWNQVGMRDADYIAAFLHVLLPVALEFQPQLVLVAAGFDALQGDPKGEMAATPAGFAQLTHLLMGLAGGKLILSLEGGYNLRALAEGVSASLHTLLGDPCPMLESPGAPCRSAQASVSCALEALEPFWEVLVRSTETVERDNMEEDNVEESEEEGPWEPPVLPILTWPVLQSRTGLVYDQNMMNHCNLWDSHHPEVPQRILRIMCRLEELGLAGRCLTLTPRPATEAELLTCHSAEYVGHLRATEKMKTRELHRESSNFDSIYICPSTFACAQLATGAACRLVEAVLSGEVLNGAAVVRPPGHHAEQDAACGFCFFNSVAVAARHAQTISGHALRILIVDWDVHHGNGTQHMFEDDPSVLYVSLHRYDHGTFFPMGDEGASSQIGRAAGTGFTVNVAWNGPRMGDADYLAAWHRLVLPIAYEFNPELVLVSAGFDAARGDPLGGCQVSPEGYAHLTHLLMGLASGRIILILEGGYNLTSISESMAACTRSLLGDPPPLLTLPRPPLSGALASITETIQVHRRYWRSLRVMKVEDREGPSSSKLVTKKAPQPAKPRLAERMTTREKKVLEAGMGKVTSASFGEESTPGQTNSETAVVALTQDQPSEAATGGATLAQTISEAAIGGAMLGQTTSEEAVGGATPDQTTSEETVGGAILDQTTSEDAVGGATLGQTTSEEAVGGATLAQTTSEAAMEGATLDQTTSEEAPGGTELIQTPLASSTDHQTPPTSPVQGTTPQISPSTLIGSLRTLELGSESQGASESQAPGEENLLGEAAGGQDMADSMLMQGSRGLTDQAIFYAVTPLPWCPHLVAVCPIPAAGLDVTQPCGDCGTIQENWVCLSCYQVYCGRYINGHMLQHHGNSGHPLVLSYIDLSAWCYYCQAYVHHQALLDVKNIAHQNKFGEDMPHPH
# Experimental: as §1
# T1 sequence (P56524 whole entry): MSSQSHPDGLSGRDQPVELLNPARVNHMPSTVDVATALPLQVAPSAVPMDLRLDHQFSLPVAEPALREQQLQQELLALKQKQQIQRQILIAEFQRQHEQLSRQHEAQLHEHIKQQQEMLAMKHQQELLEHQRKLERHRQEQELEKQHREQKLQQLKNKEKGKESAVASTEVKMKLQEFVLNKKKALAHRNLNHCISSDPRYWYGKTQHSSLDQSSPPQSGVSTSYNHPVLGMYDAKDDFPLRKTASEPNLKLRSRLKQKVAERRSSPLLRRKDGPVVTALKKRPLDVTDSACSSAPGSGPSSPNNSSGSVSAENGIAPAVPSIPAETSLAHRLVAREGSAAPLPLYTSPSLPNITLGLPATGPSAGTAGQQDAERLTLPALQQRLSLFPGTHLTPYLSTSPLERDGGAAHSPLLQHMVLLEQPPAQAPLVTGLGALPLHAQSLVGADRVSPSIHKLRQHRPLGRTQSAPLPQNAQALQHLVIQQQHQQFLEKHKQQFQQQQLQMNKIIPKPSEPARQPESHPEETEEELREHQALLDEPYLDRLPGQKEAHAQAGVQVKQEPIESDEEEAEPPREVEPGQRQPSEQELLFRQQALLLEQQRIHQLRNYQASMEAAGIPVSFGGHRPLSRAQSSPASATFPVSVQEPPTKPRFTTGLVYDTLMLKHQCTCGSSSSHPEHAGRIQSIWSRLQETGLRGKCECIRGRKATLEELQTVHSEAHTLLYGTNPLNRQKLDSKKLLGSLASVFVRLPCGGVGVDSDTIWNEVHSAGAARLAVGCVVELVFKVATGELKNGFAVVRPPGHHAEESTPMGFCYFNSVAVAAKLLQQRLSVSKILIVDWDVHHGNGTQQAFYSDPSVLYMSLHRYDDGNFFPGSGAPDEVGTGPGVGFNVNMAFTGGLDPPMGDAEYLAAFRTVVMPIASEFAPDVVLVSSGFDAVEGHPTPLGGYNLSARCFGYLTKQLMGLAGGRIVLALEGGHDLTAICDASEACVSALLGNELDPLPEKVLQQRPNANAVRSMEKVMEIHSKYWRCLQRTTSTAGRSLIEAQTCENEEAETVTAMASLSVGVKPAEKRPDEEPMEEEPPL
# T2 sequence (Q13547 whole entry): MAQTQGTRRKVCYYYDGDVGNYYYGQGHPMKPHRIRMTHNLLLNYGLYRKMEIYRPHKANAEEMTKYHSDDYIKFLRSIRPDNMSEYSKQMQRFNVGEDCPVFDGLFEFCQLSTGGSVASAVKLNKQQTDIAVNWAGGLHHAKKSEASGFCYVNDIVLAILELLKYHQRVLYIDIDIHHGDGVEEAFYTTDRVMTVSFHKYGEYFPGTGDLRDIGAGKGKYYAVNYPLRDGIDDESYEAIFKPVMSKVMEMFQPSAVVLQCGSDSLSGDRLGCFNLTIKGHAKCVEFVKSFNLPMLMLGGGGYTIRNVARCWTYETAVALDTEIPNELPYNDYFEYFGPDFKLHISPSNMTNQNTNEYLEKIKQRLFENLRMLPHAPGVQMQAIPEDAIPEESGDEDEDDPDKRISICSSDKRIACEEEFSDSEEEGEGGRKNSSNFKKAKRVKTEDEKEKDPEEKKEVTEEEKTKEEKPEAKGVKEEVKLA
smiles,measurement,setting,value
"O=C1c2cc(-c3nnc(C(F)F)o3)cnc2CN1[C@@H]1CCCC[C@H]1NC(=O)C(F)(F)C(F)(F)F [T-518, N-[(1R,2R)-2-{3-[5-(difluoromethyl)-1,3,4-oxadiazol-2-yl]-5-oxo-5H,6H,7H-pyrrolo[3,4-b]pyridin-6-yl}cyclohexyl]-2,2,3,3,3-pentafluoropropanamide]",inhibition of human HDAC4 enzyme activity,human HDAC4,did not obviously inhibit
same,inhibition of human HDAC1 enzyme activity,human HDAC1,did not obviously inhibit
same,IC50,human HDAC6; after 60 min of pre-incubation,4.6 nM
same,IC50,human HDAC6; without pre-incubation,36 nM
